This test concerns the target T1, human B1R (Homo sapiens, UniProt P46663).
T1 construct: expressed in transfected cells; host or cells: CHO K1 cells (Chinese Hamster Ovary), stably transfected
T1 sequence (P46663 1-353): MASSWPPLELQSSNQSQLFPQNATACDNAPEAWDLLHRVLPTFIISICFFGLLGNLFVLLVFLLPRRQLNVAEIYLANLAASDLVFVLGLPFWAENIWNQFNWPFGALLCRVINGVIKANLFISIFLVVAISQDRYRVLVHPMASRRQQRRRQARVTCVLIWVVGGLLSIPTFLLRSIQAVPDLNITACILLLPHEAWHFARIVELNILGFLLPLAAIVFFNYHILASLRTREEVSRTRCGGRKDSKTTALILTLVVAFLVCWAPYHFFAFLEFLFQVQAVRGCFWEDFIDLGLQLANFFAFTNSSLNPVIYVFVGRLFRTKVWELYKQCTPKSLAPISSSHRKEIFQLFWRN
Briefly: Functional assay at bradykinin receptor 1 (B1R): Ca2+ fluorescence (Fluo-4) in FLIPR/Novostar, antagonist mode. Type of test: cell-based. The following applies: test substance 10 µM, CHO K1 cells stably transfected with human B1R gene (hB1R-Zellen), agonist Lys-Des-Arg9-Bradykinin at EC80, % inhibition relative to maximal achievable inhibition; for inhibition at 10 µM: read-out: % Inhibierung (human B1R) bei 10 µM. The method, then: Die agonistische bzw. antagonistische Wirkung von Substanzen kann am Bradykinin Rezeptor 1 (B1R) der Spezies Mensch und Ratte mit ektopisch exprimierenden Zelllinien (CHO K1 Zellen) und mit Hilfe eines Ca^2+-sensitiven Farbstoffs (Fluo-4) im Fluorescent Imaging Plate Reader (FLIPR) quantifiziert werden. Die Angabe in % Aktivierung wird bezogen auf das Ca^2+-Signal nach Zugabe von Lys-Des-Arg^9-Bradykinin ([…]), bzw. Des-Arg^9-Bradykinin (100 nM). Antagonisten führen zu einer Unterdrückung des Ca^2+-Einstroms nach der Zugabe des Agonisten. Angegeben werden % Inhibition im Vergleich zu der maximal erreichbaren Inhibition.
Die agonistische bzw. antagonistische Wirkung von Substanzen kann am Bradykinin Rezeptor 1 (B1R) der Spezies Mensch und Ratte mit folgendem Assay bestimmt werden. Gemäß diesem Assay wird der intrazelluläre Ca^2+-Anstieg nach Gabe eines B1 R Agonisten mit Hilfe eines Ca^2+-sensitiven Farbstoffs (Typ Fluo-4, Molecular Probes Europe BV, Leiden NL) im Fluorescent Imaging Plate Reader (FLIPR, Molecular Devices, Sunnyvale, USA) und/oder im Novostar (BMG Labtech GmbH, Offenburg, DE) quantifiziert.
Es werden Chinese Hamster Ovary Zellen (CHO K1 Zellen) verwendet, die stabil mit dem humanen B1 R-Gen (hB1R-Zellen) bzw. dem B1 R-Gen der Ratte (rB1R-Zellen) transfiziert sind. Für funktionelle Untersuchungen werden diese Zellen auf schwarze 96-Loch-Platten mit klarem Boden (BD Biosciences, Heidelberg, DE oder Greiner, Frickenhausen, DE) in einer Dichte von 20.000 - 35.000 Zellen/Loch ausplattiert. Über Nacht werden die Zellen bei 37°C und 5 % CO2 in Kulturmedium (hB1 R-Zellen: Nutrient Mixture Ham's F12, Gibco Invitrogen GmbH, Karlsruhe, Deutschland oder DMEM, Sigma-Aldrich, Taufkirchen, Deutschland; rB1R-Zellen: D-MEM/F12, Gibco Invitrogen GmbH, Karlsruhe, DE) mit 10 Vol-% FBS (Fetal bovine serum, Gibco Invitrogen GmbH, Karlsruhe, DE oder PAN Biotech GmbH, Aidenbach, DE) belassen. Am folgenden Tag werden die Zellen mit 2,13 µM Fluo-4 (Molecular Probes Europe BV, Leiden, NL) in HBSS-Puffer (Hank's buffered saline solution, Gibco Invitrogen GmbH, Karlsruhe, DE) mit 2,5 mM Probenecid (Sigma-Aldrich, Taufkirchen, DE) und 10 mM HEPES (Sigma-Aldrich, Taufkirchen, DE) für 60 min bei 37°C beladen. Anschließend werden die Platten 2 x mit HBSS-Puffer gewaschen und mit HBSS-Puffer versetzt, der zusätzlich 0,1 % BSA (bovines Serumalbumin; Sigma-Aldrich, Taufkirchen, Deutschland), 5,6 mM Glucose und 0,05 % Gelatine (Merck KGaA, Darmstadt, DE) enthält. Nach einer weiteren Inkubation von 20 Minuten bei RT werden die Platten zur Ca^2+-Messung im FLIPR oder Novostar eingesetzt. Alternativ wird mit Puffer A (15 mM HEPES, 80 mM NaCl, 5 mM KCI, 1,2 mM CaCl2, 0,7 mM MgSO4, 2g/L Glucose, 2,5 mM Probenecid) gewaschen und mit Puffer A versetzt mit 2,5 µM Fluo-4 und 0,025 % Pluronic F127 (Sigma-Aldrich, Taufkirchen, DE) beladen. Danach werden die Zellen 2 x mit Puffer A gewaschen und für 30 Minuten mit Puffer A, der zusätzlich 0,05 % BSA und 0,05 % Gelatine enthält bei RT inkubiert und danach zur Ca^2+-Messung im FLIPR oder Novostar eingesetzt.
Die Ca^2+-abhängige Fluoreszenz wird dabei vor und nach Zugabe von Substanzen gemessen (λex = 488 nm, λem = 540 nm). Die Quantifizierung erfolgt durch die Messung der höchsten Fluoreszenzintensität (FC, Fluorescence Counts) über die Zeit.
Das FLIPR-Protokoll besteht aus 2 Substanzzugaben, die im FLIPR pipettiert werden. Bei Messungen im Novostar wird nur die zweite Substanzzugabe im Gerät pipettiert. Beide Geräte messen die Fluoreszenzintensität über die Zeit. Zunächst werden Testsubstanzen (10 µM) auf die Zellen pipettiert und der intrazelluläre Ca^2+-Anstieg mit der Kontrolle (hB1 R: Lys-Des-Arg^9-Bradykinin >= 50 nM; rB1 R: Des-Arg^9-Bradykinin >= 1 µM) verglichen. Daraus ergibt sich die Angabe in % Aktivierung bezogen auf das Ca^2+-Signal nach Zugabe von Lys-Des-Arg^9-Bradykinin (>= 50 nM), bzw. Des-Arg^9-Bradykinin (>=1 µM). Nach 6-20 Minuten Inkubation werden Lys-Des-Arg^9-Bradykinin (hB1 R) bzw. […]

This is an account of results in EP2857388A1, “Azoles containing sulfone” (Grünenthal GmbH, priority 2013, dated 2015).

Regarding “2-[3-[[(2,3-Dichlor-phenyl)sulfonyl]-methyl]-[1,2,4]oxadiazol-5-yl]-N-(1,3,3-trimethyl-piperidin-4-yl)-acetamid [CC-114]”, the “% Inhibierung (human B1R) bei 10 µM” value is given as 61%.

“2-[3-[[(2-Chlor-6-methyl-phenyl)sulfonyl]-methyl]-[1,2,4]oxadiazol-5-yl]-N-(3,3-dimethyl-piperidin-4-yl)-acetamid [CC-120]”: the “% Inhibierung (human B1R) bei 10 µM” value was 98%.

With “2-[3-[[(2-Chlor-6-methyl-phenyl)sulfonyl]-methyl]-[1,2,4]oxadiazol-5-yl]-N-(4-dimethylamino-cyclohexyl)-acetamid [CC-128]”, the “% Inhibierung (human B1R) bei 10 µM” value was 99%.

Take “2-[3-[[(4-Chlor-2,5-dimethyl-phenyl)sulfonyl]-methyl]-[1,2,4]oxadiazol-5-yl]-N-cyclopropyl-N-(4-dimethylamino-cyclohexyl)-acetamid [CC-113]”: the “% Inhibierung (human B1R) bei 10 µM” value is on record as 90%.

Consider `COc1cc(C)c(S(=O)(=O)Cc2noc(C(=O)N[C@H]3CCC[C@@H](N4CCN(C)CC4)C3)n2)c(C)c1` [CC-01, 3-[[(4-Methoxy-2,6-dimethyl-phenyl)sulfonyl]-methyl]-N-[(1S,3R)-3-(4-methyl-piperazin-1-yl)-cyclohexyl]-[1,2,4]oxadiazol-5-carbonsäure amid], for which the inhibition at 10 µM came out at 100%.

Take `COc1cc(C)c(S(=O)(=O)Cc2noc(C(=O)NC3CCN(c4ccc(C(F)(F)F)cn4)CC3)n2)c(C)c1` [CC-02, 3-[[(4-Methoxy-2,6-dimethyl-phenyl)sulfonyl]-methyl]-N-[1-[5-(trifluormethyl)-pyridin-2-yl]-piperidin-4-yl]-[1,2,4]oxadiazol-5-carbonsäure amid]: the inhibition at 10 µM amounted to 86%.

As to `COc1cc(C)c(S(=O)(=O)Cc2noc(CC(=O)NC3CCN(c4ccc(C(F)(F)F)cn4)CC3)n2)c(C)c1` [CC-03, 2-[3-[[(4-Methoxy-2,6-dimethyl-phenyl)sulfonyl]-methyl]-[1,2,4]oxadiazol-5-yl]-N-[1-[5-(trifluor-methyl)-pyridin-2-yl]-piperidin-4-yl]-acetamid], the inhibition at 10 µM came to 91%.

`COc1cc(C)c(S(=O)(=O)Cc2noc(C(=O)NC3CCC(N(C)C)CC3)n2)c(C)c1` (stereo not shown) [CC-04, N-(4-Dimethylamino-cyclohexyl)-3-[[(4-methoxy-2,6-dimethyl-phenyl)sulfonyl]-methyl]-[1,2,4]oxa-diazol-5-carbonsäure amid]: the inhibition at 10 µM stood at 100%.

As to `COc1cc(C)c(S(=O)(=O)Cc2noc(CC(=O)NC3CCC(N(C)C)CC3)n2)c(C)c1` (stereo not shown) [CC-05, N-(4-Dimethylamino-cyclohexyl)-2-[3-[[(4-methoxy-2,6-dimethyl-phenyl)sulfonyl]-methyl]-[1,2,4]oxadiazol-5-yl]-acetamid], the inhibition at 10 µM is 100%.

Regarding `COc1cc(C)c(S(=O)(=O)Cc2noc(CC(=O)N(C)CCC3CCN(c4ccncc4)CC3)n2)c(C)c1` [CC-06, 2-[3-[[(4-Methoxy-2,6-dimethyl-phenyl)sulfonyl]-methyl]-[1,2,4]oxadiazol-5-yl]-N-methyl-N-[2-(1-pyridin-4-yl-piperidin-4-yl)-ethyl]-acetamid], the inhibition at 10 µM was 100%.

For `Cc1cccc(Cl)c1S(=O)(=O)Cc1noc(C(=O)NC2CCN(c3ccc(C(F)(F)F)cn3)CC2)n1` [CC-09, 3-[[(2-Chlor-6-methyl-phenyl)sulfonyl]-methyl]-N-[1-[5-(trifluormethyl)-pyridin-2-yl]-piperidin-4-yl]-[1,2,4]oxadiazol-5-carbonsäure amid], the inhibition at 10 µM was 54%.

Turning to `COc1cc(C)c(S(=O)(=O)Cc2noc(C(=O)N(C)CCC3CCN(c4ccncc4)CC3)n2)c(C)c1` [CC-10, 3-[[(4-Methoxy-2,6-dimethyl-phenyl)sulfonyl]-methyl]-N-methyl-N-[2-(1-pyridin-4-yl-piperidin-4-yl)-ethyl]-[1,2,4]oxadiazol-5-carbonsäure amid], the inhibition at 10 µM was 100%.

In the case of `Cc1cccc(Cl)c1S(=O)(=O)Cc1noc(C(=O)NC2CCC(N(C)C)CC2)n1` (stereo not shown) [CC-11, 3-[[(2-Chlor-6-methyl-phenyl)sulfonyl]-methyl]-N-(4-dimethylamino-cyclohexyl)-[1,2,4]oxadiazol-5-carbonsäure amid], the inhibition at 10 µM worked out at 95%.

On to `Cc1cc(S(=O)(=O)Cc2noc(C(=O)NC3CCC(N(C)C)CC3)n2)c(C)cc1Cl` (stereo not shown) [CC-13, 3-[[(4-Chlor-2,5-dimethyl-phenyl)sulfonyl]-methyl]-N-(4-dimethylamino-cyclohexyl)-[1,2,4]oxa-diazol-5-carbonsäure amid], for which the inhibition at 10 µM amounted to 99%.

As to `Cc1cccc(Cl)c1S(=O)(=O)Cc1noc(C(=O)N(C)CCC2CCN(c3ccncc3)CC2)n1` [CC-14, 3-[[(2-Chlor-6-methyl-phenyl)sulfonyl]-methyl]-N-methyl-N-[2-(1-pyridin-4-yl-piperidin-4-yl)-ethyl]-[1,2,4]oxadiazol-5-carbonsäure amid], the inhibition at 10 µM was 100%.

As to `Cc1cc(S(=O)(=O)Cc2noc(C(=O)N(C)CCC3CCN(c4ccncc4)CC3)n2)c(C)cc1Cl` [CC-16, 3-[[(4-Chlor-2,5-dimethyl-phenyl)sulfonyl]-methyl]-N-methyl-N-[2-(1-pyridin-4-yl-piperidin-4-yl)-ethyl]-[1,2,4]oxadiazol-5-carbonsäure amid], the inhibition at 10 µM came out at 100%.

As to `COc1cc(C)c(S(=O)(=O)Cc2noc(C(=O)NC3CCNCC3(C)C)n2)c(C)c1` (stereo not shown) [CC-17, N-(3,3-Dimethyl-piperidin-4-yl)-3-[[(4-methoxy-2,6-dimethyl-phenyl)sulfonyl]-methyl]-[1,2,4]oxa-diazol-5-carbonsäure amid], the inhibition at 10 µM was found to be 100%.

Regarding `COc1cc(C)c(S(=O)(=O)Cc2noc(CC(=O)NC3CCNCC3(C)C)n2)c(C)c1` (stereo not shown) [CC-18, N-(3,3-Dimethyl-piperidin-4-yl)-2-[3-[[(4-methoxy-2,6-dimethyl-phenyl)sulfonyl]-methyl]-[1,2,4]oxadiazol-5-yl]-acetamid], the inhibition at 10 µM is 100%.

As to `Cc1cccc(Cl)c1S(=O)(=O)Cc1noc(C(=O)NC2CCC(N3CCCC3)CC2(C)C)n1` (stereo not shown) [CC-20, 3-[[(2-Chlor-6-methyl-phenyl)sulfonyl]-methyl]-N-(2,2-dimethyl-4-pyrrolidin-1-yl-cyclohexyl)-[1,2,4]oxadiazol-5-carbonsäure amid], the inhibition at 10 µM amounted to 89%.
